In brackets after ≈: the same amount, converted by molar mass. Blank lines part the entries; values can stand above or below the compound they belong to.
Tests used:
Assay in all cases: ≥ marks a high value that may be exact or a test limit, other limits are often not marked, values filed in µg/mL are converted to µM
[1] = system: Staphylococcus aureus ATCC 33591
[2] = system: Pseudomonas aeruginosa ATCC 27853
[3] = system: Escherichia coli ATCC 25922
[4] = system: Enterococcus faecium ATCC 700221
[5] = system: Pseudomonas aeruginosa ATCC 15692
[6] = system: Staphylococcus aureus ATCC 25923
[7] = system: Bacillus subtilis KCTC 1998
[8] = system: Candida krusei ATCC 6258
[9] = system: Candida albicans ATCC 90028
[10] = system: Candida parapsilosis ATCC 22019
[11] = system: Candida albicans SC5314
[12] = system: Bacillus subtilis KCTC 3068
[13] = system: Pseudomonas aeruginosa KCTC 1637
[14] = system: Pseudomonas aeruginosa CCARM 2095
[15] = system: Salmonella typhimurium CCARM 8009
[16] = system: Escherichia coli CCARM 1229
[17] = system: Staphylococcus aureus KCTC 1621
[18] = system: Enterococcus faecalis KCTC 2011
[19] = system: Salmonella typhimurium KCTC 1926
[20] = system: Acinetobacter baumannii CCARM 12035
[21] = system: Escherichia coli KCTC 1682
[22] = system: Staphylococcus aureus ATCC 6538
[23] = system: Staphylococcus epidermidis RP62A
[24] = system: Pseudomonas aeruginosa ATCC 15442
[25] = system: Staphylococcus aureus ATCC 29213
[26] = system: Acinetobacter baumannii ATCC BAA-1605
[27] = system: Klebsiella pneumoniae ATCC 700603
[28] = system: Shigella dysenteriae CMCC 51302
[29] = system: Streptococcus mutans
[30] = system: Listeria monocytogenes CMCC 54002
[31] = system: Salmonella typhimurium CMCC 50013
[32] = system: Erwinia amylovora PMV 6076
[33] = system: Pseudomonas syringae pv. syringae EPS 94

Structure (SMILES): CC[C@H](C)[C@H](NC(=O)[C@H](CCCCN)NC(=O)[C@H](CO)NC(=O)[C@@H]1CCCN1C(=O)[C@H](CC(C)C)NC(=O)[C@H](CCCCN)NC(=O)[C@@H]1CCCN1C(=O)[C@H](CC(C)C)NC(=O)[C@H](CCCN=C(N)N)NC(=O)[C@H](CCCCN)NC(=O)[C@H](Cc1ccccc1)NC(=O)[C@@H](NC(=O)[C@H](CCCCN)NC(=O)[C@H](CCCCN)NC(=O)[C@H](C)N)C(C)C)C(=O)N[C@@H](Cc1c[nH]c2ccccc12)C(=O)N[C@@H](CC(N)=O)C(=O)N[C@@H](Cc1c[nH]c2ccccc12)C(=O)N[C@@H](CCCCN)C(N)=O [AKKVFKRLPKLPSKIWNWK]
- MIC [5]: 2 µM (≈ 4.73 µg/mL)
- MIC [3]: 2 µM (≈ 4.73 µg/mL)
- MIC [6]: 8 µM (≈ 18.9 µg/mL)
- MIC [7]: 1 µM (≈ 2.37 µg/mL)

Structure (SMILES): CC(C)[C@H](NC(=O)[C@H](C)N)C(=O)N[C@@H](C)C(=O)N[C@H](C(=O)N[C@H](C(=O)NCC(=O)N[C@@H](CCC(N)=O)C(=O)N[C@@H](C)C(=O)N[C@@H](C)C(=O)N[C@H](C(=O)N[C@H](C(=O)N[C@H](C(=O)N[C@@H](CCCCN)C(N)=O)C(C)C)C(C)C)[C@@H](C)O)C(C)C)C(C)C [AVAVVGQAATVVK]
- MIC [12]: ≥ 128 µM
- MIC [13]: ≥ 128 µM
- MIC [14]: ≥ 128 µM
- MIC [15]: ≥ 128 µM
- MIC [16]: ≥ 128 µM
- MIC [17]: ≥ 128 µM
- MIC [18]: ≥ 128 µM
- MIC [19]: ≥ 128 µM
- MIC [20]: ≥ 128 µM
- MIC [21]: ≥ 128 µM

Structure (SMILES): CC(C)C[C@H](NC(=O)[C@H](CCCCN)NC(=O)[C@H](CO)NC(=O)[C@H](CCCCN)NC(=O)[C@H](CC(=O)O)NC(=O)[C@H](Cc1ccccc1)NC(=O)[C@H](CO)NC(=O)[C@H](C)NC(=O)[C@@H](NC(=O)[C@@H](N)CCC(=O)O)C(C)C)C(=O)N[C@@H](CCCCN)C(=O)O [EVASFDKSKLK]
- MIC [22]: 9990 µM (≈ 12500 µg/mL)
- MIC [23]: ≥ 4950 µM
- MIC [24]: ≥ 9990 µM
- MIC [6]: 9990 µM (≈ 12500 µg/mL)
- MIC [25]: 9990 µM (≈ 12500 µg/mL)

Structure (SMILES): CC[C@H](C)[C@H](NC(=O)[C@H](CCCN=C(N)N)NC(=O)[C@H](CCCCN)NC(=O)[C@H](Cc1ccccc1)NC(=O)[C@H](CC(C)C)NC(=O)[C@H](CCCCN)NC(=O)[C@@H](N)CCCN=C(N)N)C(=O)N[C@@H](CC(C)C)C(=O)N[C@@H](CCCCN)C(=O)N[C@@H](Cc1ccc(O)cc1)C(=O)N[C@@H](CC(C)C)C(N)=O [RKLFKRILKYL]
- MIC [1]: ≥ 93 µM
- MIC [26]: ≥ 46.7 µM
- MIC [2]: 93 µM (≈ 137 µg/mL)
- MIC [3]: 186 µM (≈ 275 µg/mL)
- MIC [27]: 93 µM (≈ 137 µg/mL)
- MIC [4]: ≥ 186 µM

Structure (SMILES): CC(C)C[C@H](NC(=O)CN)C(=O)N[C@@H](CCCN=C(N)N)C(=O)N[C@@H](CCCN=C(N)N)C(=O)N[C@@H](C)C(=O)N[C@@H](CC(C)C)C(=O)N[C@@H](CC(C)C)C(=O)N[C@@H](CCCN=C(N)N)C(=O)N[C@@H](CC(C)C)C(=O)N[C@@H](CC(C)C)C(=O)N[C@@H](CCCN=C(N)N)C(=O)N[C@@H](CO)C(=O)N[C@@H](CC(C)C)C(=O)N[C@@H](CCCN=C(N)N)C(=O)N[C@@H](CCCN=C(N)N)C(=O)N[C@@H](CC(C)C)C(=O)N[C@@H](CC(C)C)C(=O)N[C@@H](CC(C)C)C(=O)N[C@@H](CCCN=C(N)N)C(=O)N[C@@H](C)C(=O)O [GLRRALLRLLRSLRRLLLRA]
- MIC [28]: 8 µM (≈ 19.3 µg/mL)
- MIC [3]: 8 µM (≈ 19.3 µg/mL)
- MIC [29]: 8 µM (≈ 19.3 µg/mL)
- MIC [30]: 16 µM (≈ 38.7 µg/mL)
- MIC [31]: 4 µM (≈ 9.66 µg/mL)
- MIC [25]: 32 µM (≈ 77.3 µg/mL)

Structure (SMILES): CC[C@H](C)[C@H](NC(=O)[C@@H](N)CCC(=O)O)C(=O)N[C@@H](CCC(=O)O)C(=O)N[C@@H](CCCCN)C(=O)N[C@@H](Cc1ccccc1)C(=O)N[C@@H](CC(=O)O)C(=O)N[C@@H](CCCCN)C(=O)N[C@@H](CO)C(=O)N[C@@H](CCCCN)C(=O)N[C@@H](CC(C)C)C(=O)N[C@@H](CCCCN)C(=O)O [EIEKFDKSKLK]
- MIC [22]: 9160 µM (≈ 12500 µg/mL)
- MIC [23]: ≥ 9160 µM
- MIC [24]: ≥ 9160 µM
- MIC [6]: 9160 µM (≈ 12500 µg/mL)
- MIC [25]: 4540 µM (≈ 6200 µg/mL)

Second part, the compound after the results:

- MIC [1]: 3.1 µM (≈ 5.62 µg/mL)
- MIC [2]: 12.5 µM (≈ 22.7 µg/mL)
- MIC [3]: 3.1 µM (≈ 5.62 µg/mL)
- MIC [4]: 1.6 µM (≈ 2.9 µg/mL)
Structure (SMILES): CC[C@H](C)[C@H](NC(=O)[C@H](CCCCN)NC(=O)[C@H](CCCCN)NC(=O)[C@H](CC(C)C)NC(=O)[C@H](CC(C)C)NC(=O)[C@H](CCCCN)NC(=O)[C@H](CCCCN)NC(=O)[C@@H](NC(=O)[C@@H](NC(=O)[C@H](CC(=O)O)NC(=O)[C@H](Cc1ccccc1)NC(=O)[C@H](CC(C)C)NC(=O)CN)C(C)C)[C@@H](C)CC)C(=O)N[C@@H](CCCCN)C(=O)NCC(=O)N[C@@H](CC(C)C)C(N)=O [GLFDVIKKLLKKIKGL]

- MIC [8]: 6.79 µM (≈ 16 µg/mL)
- MIC [9]: 27.1 µM (≈ 64 µg/mL)
- MIC [10]: 13.6 µM (≈ 32 µg/mL)
- MIC [11]: 13.6 µM (≈ 32 µg/mL)
Structure (SMILES): CC[C@H](C)[C@H](NC(=O)CN)C(=O)N[C@@H](Cc1c[nH]c2ccccc12)C(=O)N[C@@H](CCCCN)C(=O)N[C@@H](CCCCN)C(=O)N[C@@H](Cc1c[nH]c2ccccc12)C(=O)N[C@H](C(=O)N[C@@H](CCCCN)C(=O)N[C@@H](CCCCN)C(=O)N[C@@H](Cc1c[nH]c2ccccc12)C(=O)N[C@@H](CC(C)C)C(=O)N[C@@H](CCCCN)C(=O)N[C@@H](CCCCN)C(=O)N[C@@H](CC(C)C)C(=O)N[C@@H](CCCCN)C(=O)N[C@@H](CC(N)=O)C(=O)N[C@@H](CC(C)C)C(=O)N[C@@H](Cc1ccccc1)C(N)=O)[C@@H](C)CC [GIWKKWIKKWLKKLKNLF]

- MIC [32]: 3.54 µM (≈ 11 µg/mL)
- MIC [33]: 3.54 µM (≈ 11 µg/mL)
Structure (SMILES): CC[C@H](C)[C@H](NC(=O)[C@H](CCCCN)NC(=O)[C@H](CCCCN)NC(=O)[C@H](Cc1ccccc1)NC(=O)[C@H](CC(C)C)NC(=O)[C@H](CCCCN)NC(=O)[C@H](CCCCN)NC(=O)[C@H](C)NC(=O)[C@@H]1CCCN1C(=O)CNC(=O)[C@H](C)NC(=O)[C@H](CC(C)C)NC(=O)[C@H](Cc1ccc(O)cc1)NC(=O)[C@H](CCCCN)NC(=O)[C@H](CC(C)C)NC(=O)[C@@H](NC(=O)[C@H](CCCCN)NC(=O)[C@H](CCCCN)NC(=O)[C@H](Cc1ccccc1)NC(=O)[C@H](CC(C)C)NC(=O)[C@H](CCCCN)NC(=O)[C@@H](N)CCCCN)[C@@H](C)CC)C(=O)N[C@@H](CC(C)C)C(=O)N[C@@H](CCCCN)C(=O)N[C@@H](Cc1ccc(O)cc1)C(=O)N[C@@H](CC(C)C)C(=O)O [KKLFKKILKYLAGPAKKLFKKILKYL]

Source: DBAASP
